Where two headings read alike, the source gives them in different places.
How the values were obtained:
[1] = In vitro skin permeation study, Franz diffusion cell method; type: in vitro ADME, human; conditions: for recovery: human
Excerpt: VVWE was characterized by a validated HPLC-DAD method as previously described. Briefly, two different HPLC methods coupled with a Diode Array Detector (DAD) have been used, the first for anthocyanin detection at 520 nm by the use of a Synergi 4u MAX-RP 80 Å column (250 × 4.60 mm × 4 μm) (Phenomenex, Torrance, CA, USA) and the second for flavonols and caffeic acid derivative detection at 360 nm by Synergi 4u MAX-RP 80 Å column (250 × 2 mm × 4 μm) (Phenomenex, Torrance, CA, USA). The anthocyanins standards, hyperoside and kaempferol-3-O-glucoside, were from Extrasynthese (Genay, France); all the other standards and solvents were bought from Sigma-Aldrich (St. Louis, MO, USA).
The human epidermis membrane used for in vitro permeation studies was obtained from the abdominal skin of a single donor. The epidermis was prepared according to the heat separation method, as previously reported.
Ex vivo skin permeation study: the study was performed using the Franz diffusion cell method. The human epidermis was mounted carefully on the receiver compartment of the Franz’s cell with the stratum corneum side in contact with donor solution. The receiver compartment was filled with freshly prepared degassed HCl 0.1 M solution (receiver phase). VVWE (150 mg) solubilized in 0.1 M HCl:EtOH (50:50, v/v) was loaded in the donor compartment (0.5 mL). At predetermined intervals (1, 5, 7, 24, 32, 48 h), 0.2-mL samples were removed from the receiver compartment and immediately replaced with fresh receiver phase. Sink conditions were maintained throughout the experiment. The samples were assayed by HPLC analysis. Four parallel experiments were performed.

IL-8 = IL-8 release in HaCaT cells (ELISA); type: cell-based, human; conditions: 0.1–100 μM, up to the maximum concentration tested (100 μM)
Method: Cells were grown in 24-well plates for 48 h (30,000 cells per well) before the cytokine treatment. IL-8 was quantified using a Human Interleukin-8 ELISA Development Kit as previously described. Preliminary time-course experiments were performed to set the best conditions for further experiments. HaCaT were treated with TNF-α (10 ng/mL), LPS (5 μg/mL), or H2O2 (100 μM), for 3, 6, 24, and 30 h. The IL-8 secretion induced by TNF-α or LPS was tested after 6 h of treatment, while the 24-h time point was chosen for H2O2. Epigallocatechin-3-gallate (EGCG) (20 μM) was used as the reference inhibitor of IL-8 secretion.
HaCaT cells were grown in 24-well plates for 48 h (30,000 cells per well), washed with phosphate-buffered saline (PBS), and exposed to UVB (40 mJ/cm^2) light source (Triwood 31/36, W36, V230, Helios Italquartz, Milano, Italy) in a glass bath. Radiation time (about 50 s) was adjusted for each experimental day, measuring energy emission by the LP 471 UVB probe (Delta OHM, Padova, Italy). After radiation, serum free fresh culture medium was immediately added. For the evaluation of IL-8 release, cells were treated for additional 9 h, a time point selected in preliminary time-course experiments. For NF-κB (p65) translocation, HaCaT cells were treated for 1 h after UVB radiation. EGCG (20 μM) was used as reference inhibitor.

[2] = human epidermis, Franz cell, 150 mg VVWE, four replicates, read-out: Permeated Amount (% Recovery) (converted)
[3] = human epidermis, Franz cell, 150 mg VVWE, four replicates, read-out: Retained Amount in the Epidermidis (% Recovery) (converted)
[4] = µg per g VVWE, human epidermis, Franz cell, 150 mg VVWE
[5] = µg per g VVWE, human epidermis, Franz cell, 150 mg VVWE, 48 h, receiver phase
[6] = human epidermis, Franz cell, 150 mg VVWE, four replicates

**Q.** Which recovery [1, 2] does the source give for O=C(/C=C/c1ccc(O)c(O)c1)O[C@@H](C(=O)O)[C@@H](O)C(=O)O [Caftaric acid] here?
**A.** 0.476%

**Q.** And the recovery [1, 3]?
**A.** 0.102%

**Q.** And the “Retained Amount in the Epidermidis ± SD” value [1, 4]?
**A.** 10.20 ± 9.00 µg/g

**Q.** And the “Permeated Amount ± SD” value [1, 5]?
**A.** 47.59 ± 27.64 µg/g

**Q.** What about the “Permeated Amount ± SD” value ([1]; µg per g VVWE, human epidermis, Franz cell, 150 mg VVWE, 48 h, receiver phase, listed as caftaric acid) of the same compound?
**A.** 47.59 µg/g

**Q.** What about the “Retained Amount in the Epidermidis ± SD” value ([1]; µg per g VVWE, human epidermis, Franz cell, 150 mg VVWE, listed as caftaric acid) of the same compound?
**A.** 10.20 µg/g

**Q.** And the “IL-8 release induced by TNF-α, pure compounds” value (IL-8)?
**A.** failed to reduce IL-8 release

**Q.** Which “Permeated Amount (% Recovery)” value [1, 6] does the source give for OC[C@H]1O[C@@H](Oc2cc3c(O)cc(O)cc3[o+]c2-c2ccc(O)c(O)c2)[C@H](O)[C@@H](O)[C@@H]1O [Cyanidin 3-O-glucoside] here?
**A.** 0.071%

**Q.** And the “Retained Amount in the Epidermidis (% Recovery)” value (from here on “Retained Amount … (% Recovery)”) [1, 6]?
**A.** 0.013%

**Q.** What about the “Retained Amount in the Epidermidis ± SD” value [1, 4] of the same compound?
**A.** 0.30 ± 0.60 µg/g

**Q.** And the “Permeated Amount ± SD” value [1, 5]?
**A.** 1.63 ± 2.08 µg/g

**Q.** With OC[C@H]1O[C@@H](Oc2cc3c(O)cc(O)cc3[o+]c2-c2cc(O)c(O)c(O)c2)[C@H](O)[C@@H](O)[C@@H]1O [Delphinidin 3-O-glucoside] as the compound, how does the “Permeated Amount (% Recovery)” value [1, 6] read?
**A.** 0.050%

**Q.** And the “Retained Amount … (% Recovery)” value [1, 6]?
**A.** 0.004%

**Q.** And the “Retained Amount in the Epidermidis ± SD” value [1, 4]?
**A.** 0.04 ± 0.08 µg/g

**Q.** And the “Permeated Amount ± SD” value [1, 5]?
**A.** 0.48 ± 0.68 µg/g

**Q.** Which recovery [1, 2] does the source give for O=c1c(O[C@@H]2O[C@H](CO)[C@H](O)[C@H](O)[C@H]2O)c(-c2ccc(O)c(O)c2)oc2cc(O)cc(O)c12 [Hyperoside] here?
**A.** 0.02%

**Q.** And the recovery [1, 3]?
**A.** 0.058%

**Q.** And the “Retained Amount in the Epidermidis ± SD” value [1, 4]?
**A.** 1.34 ± 1.43 µg/g

**Q.** And the “Permeated Amount ± SD” value [1, 5]?
**A.** 0.47 ± 0.68 µg/g

**Q.** With O=c1c(O[C@@H]2O[C@H](CO)[C@@H](O)[C@H](O)[C@H]2O)c(-c2ccc(O)cc2)oc2cc(O)cc(O)c12 [Kaempferol 3-O-glucoside] as the compound, how does the “Permeated Amount (% Recovery)” value [1, 6] read?
**A.** 0.055%

**Q.** And the “Retained Amount … (% Recovery)” value [1, 6]?
**A.** 0.094%

**Q.** And the “Retained Amount in the Epidermidis ± SD” value [1, 4]?
**A.** 3.53 ± 3.90 µg/g

**Q.** What about the “Permeated Amount ± SD” value [1, 5] of the same compound?
**A.** 2.09 ± 1.70 µg/g

**Q.** Which “Permeated Amount (% Recovery)” value [1, 6] does the source give for COc1cc(-c2[o+]c3cc(O)cc(O)c3cc2O[C@@H]2O[C@H](CO)[C@@H](O)[C@H](O)[C@H]2O)cc(OC)c1O [Malvidin 3-O-glucoside] here?
**A.** 0.072%

**Q.** And the “Retained Amount … (% Recovery)” value [1, 6]?
**A.** 0.023%

**Q.** And the “Retained Amount in the Epidermidis ± SD” value [1, 4]?
**A.** 0.29 ± 0.58 µg/g

**Q.** What about the “Permeated Amount ± SD” value [1, 5] of the same compound?
**A.** 0.92 ± 1.22 µg/g

**Q.** Which results are given for COc1cc(-c2[o+]c3cc(O)cc(O)c3cc2O[C@@H]2O[C@H](CO)[C@@H](O)[C@H](O)[C@H]2O)ccc1O [Peonidin 3-O-glucoside]?
**A.** Permeated Amount (% Recovery) [1, 6]: 0.114%; Retained Amount in the Epidermidis (% Recovery) [1, 6]: 0.030%; Retained Amount in the Epidermidis ± SD [1, 4]: 0.58 ± 1.17 µg/g; Permeated Amount ± SD [1, 5]: 2.17 ± 2.72 µg/g

**Q.** Which results are given for COc1cc(-c2[o+]c3cc(O)cc(O)c3cc2O[C@@H]2O[C@H](CO)[C@@H](O)[C@H](O)[C@H]2O)cc(O)c1O [Petunidin 3-O-glucoside]?
**A.** Permeated Amount (% Recovery) [1]: 0.058%; Permeated Amount ± SD [1]: 0.38 ± 0.53 µg/g

**Q.** Which results are given for O=c1c(O[C@@H]2O[C@H](CO)[C@@H](O)[C@H](O)[C@H]2O)c(-c2ccc(O)c(O)c2)oc2cc(O)cc(O)c12 [Quercetin 3-O-glucoside]?
**A.** recovery [1, 2]: 0.04%; recovery [1, 3]: 0.063%; Retained Amount in the Epidermidis ± SD [1, 4]: 13.58 ± 15.88 µg/g; Permeated Amount ± SD [1, 5]: 8.74 ± 9.50 µg/g; Permeated Amount ± SD ([1]; µg per g VVWE, human epidermis, Franz cell, 150 mg VVWE, 48 h, receiver phase, listed as quercetin 3-O-glucoside): 8.74 µg/g; Retained Amount in the Epidermidis ± SD ([1]; µg per g VVWE, human epidermis, Franz cell, 150 mg VVWE, listed as quercetin 3-O-glucoside): 13.58 µg/g; IL-8 release induced by TNF-α, pure compounds (IL-8): failed to reduce IL-8 release

**Q.** For O=C(O)[C@H]1O[C@@H](Oc2c(-c3ccc(O)c(O)c3)oc3cc(O)cc(O)c3c2=O)[C@H](O)[C@@H](O)[C@@H]1O [Quercetin 3-O-glucuronide], which “Permeated Amount (% Recovery)” value [1] is on record?
**A.** 0.177%

**Q.** What about the “IL-8 release induced by TNF-α, pure compounds” value (IL-8) of the same compound?
**A.** failed to reduce IL-8 release

**Q.** What does the source list for C[C@@H]1O[C@@H](OC[C@H]2O[C@@H](Oc3c(-c4ccc(O)c(O)c4)oc4cc(O)cc(O)c4c3=O)[C@H](O)[C@@H](O)[C@@H]2O)[C@H](O)[C@H](O)[C@H]1O [Rutin]?
**A.** recovery [1, 2]: 0.023%; recovery [1, 3]: 0.061%; Retained Amount in the Epidermidis ± SD [1, 4]: 0.80 ± 0.91 µg/g; Permeated Amount ± SD [1, 5]: 0.30 ± 0.35 µg/g

Source: PMC6562865, “Vitis vinifera L. Leaf Extract Inhibits In Vitro Mediators of Inflammation and Oxidative Stress Involved in Inflammatory-Based Skin Diseases” (Antioxidants, 2019)
